Results as given in the NIST ThermoML archive (doi:10.1016/j.fluid.2016.02.031).

Test: xn = mol fraction of the nth substance listed
Settings: 100 kPa, Liquid; for viscosity: Concentric cylinders viscometry; for mass density: Vibrating tube method

c1ccncc1 [pyridine] + CCC(C)=O
Settings	mass density [kg/m3]	viscosity [mPa·s]
288.15 K, x1 = 0.1006	827.262	0.4555
288.15 K, x1 = 0.2019	844.704	0.4928
288.15 K, x1 = 0.3002	861.833	0.5309
288.15 K, x1 = 0.4004	879.307	0.5771
288.15 K, x1 = 0.4999	896.875	0.629
288.15 K, x1 = 0.597	914.2	0.6859
288.15 K, x1 = 0.6998	932.635	0.7603
288.15 K, x1 = 0.7945	949.796	0.8375
288.15 K, x1 = 0.8962	968.632	0.9269
288.15 K, x1 = 1	988.077	1.053
293.15 K, x1 = 0.1006	822.086	0.4381
293.15 K, x1 = 0.2019	839.557	0.4718
293.15 K, x1 = 0.3002	856.714	0.5088
293.15 K, x1 = 0.4004	874.211	0.5501
293.15 K, x1 = 0.4999	891.802	0.5983
293.15 K, x1 = 0.597	909.146	0.6505
293.15 K, x1 = 0.6998	927.59	0.7177
293.15 K, x1 = 0.7945	944.768	0.7876
293.15 K, x1 = 0.8962	963.61	0.8683
293.15 K, x1 = 1	983.053	0.9801
298.15 K, x1 = 0.1006	816.889	0.4203
298.15 K, x1 = 0.2019	834.388	0.4516
298.15 K, x1 = 0.3002	851.571	0.4867
298.15 K, x1 = 0.4004	869.094	0.5243
298.15 K, x1 = 0.4999	886.708	0.5689
298.15 K, x1 = 0.597	904.074	0.6164
298.15 K, x1 = 0.6998	922.541	0.6779
298.15 K, x1 = 0.7945	939.726	0.7418
298.15 K, x1 = 0.8962	958.58	0.8147
298.15 K, x1 = 1	978.02	0.9155
303.15 K, x1 = 0.1006	811.664	0.4019
303.15 K, x1 = 0.2019	829.195	0.4317
303.15 K, x1 = 0.3002	846.407	0.4649
303.15 K, x1 = 0.4004	863.96	0.5
303.15 K, x1 = 0.4999	881.597	0.5409
303.15 K, x1 = 0.597	898.986	0.5851
303.15 K, x1 = 0.6998	917.474	0.6402
303.15 K, x1 = 0.7945	934.676	0.6995
303.15 K, x1 = 0.8962	953.536	0.7669
303.15 K, x1 = 1	972.979	0.8568
308.15 K, x1 = 0.1006	806.406	0.3835
308.15 K, x1 = 0.2019	823.972	0.4117
308.15 K, x1 = 0.3002	841.216	0.4432
308.15 K, x1 = 0.4004	858.797	0.4758
308.15 K, x1 = 0.4999	876.465	0.5142
308.15 K, x1 = 0.597	893.873	0.555
308.15 K, x1 = 0.6998	912.381	0.6063
308.15 K, x1 = 0.7945	929.606	0.6588
308.15 K, x1 = 0.8962	948.477	0.7219
308.15 K, x1 = 1	967.923	0.8032
313.15 K, x1 = 0.1006	801.119	0.3653
313.15 K, x1 = 0.2019	818.72	0.392
313.15 K, x1 = 0.3002	835.996	0.4219
313.15 K, x1 = 0.4004	853.612	0.4528
313.15 K, x1 = 0.4999	871.309	0.4887
313.15 K, x1 = 0.597	888.742	0.5265
313.15 K, x1 = 0.6998	907.282	0.5741
313.15 K, x1 = 0.7945	924.517	0.6226
313.15 K, x1 = 0.8962	943.403	0.6809
313.15 K, x1 = 1	962.857	0.7546
318.15 K, x1 = 0.1006	795.798	0.3502
318.15 K, x1 = 0.2019	813.436	0.3728
318.15 K, x1 = 0.3002	830.749	0.401
318.15 K, x1 = 0.4004	848.397	0.4308
318.15 K, x1 = 0.4999	866.128	0.4642
318.15 K, x1 = 0.597	883.587	0.4996
318.15 K, x1 = 0.6998	902.151	0.544
318.15 K, x1 = 0.7945	919.408	0.5893
318.15 K, x1 = 0.8962	938.312	0.6417
318.15 K, x1 = 1	957.777	0.7103
323.15 K, x1 = 0.1006	790.436	0.3328
323.15 K, x1 = 0.2019	808.12	0.3539
323.15 K, x1 = 0.3002	825.467	0.3807
323.15 K, x1 = 0.4004	843.151	0.4095
323.15 K, x1 = 0.4999	860.918	0.4409
323.15 K, x1 = 0.597	878.406	0.4742
323.15 K, x1 = 0.6998	896.999	0.5159
323.15 K, x1 = 0.7945	914.28	0.5586
323.15 K, x1 = 0.8962	933.202	0.6072
323.15 K, x1 = 1	952.682	0.6698
328.15 K, x1 = 0.1006	785.039	0.3157
328.15 K, x1 = 0.2019	802.762	0.3354
328.15 K, x1 = 0.3002	820.152	0.361
328.15 K, x1 = 0.4004	837.875	0.3888
328.15 K, x1 = 0.4999	855.68	0.4185
328.15 K, x1 = 0.597	873.198	0.4502
328.15 K, x1 = 0.6998	891.821	0.4899
328.15 K, x1 = 0.7945	909.127	0.5297
328.15 K, x1 = 0.8962	928.07	0.5771
328.15 K, x1 = 1	947.564	0.6329
333.15 K, x1 = 0.1006	779.596	0.2989
333.15 K, x1 = 0.2019	797.367	0.3189
333.15 K, x1 = 0.3002	814.798	0.3422
333.15 K, x1 = 0.4004	832.563	0.3696
333.15 K, x1 = 0.4999	850.405	0.3985
333.15 K, x1 = 0.597	867.959	0.4291
333.15 K, x1 = 0.6998	886.618	0.4668
333.15 K, x1 = 0.7945	903.947	0.5039
333.15 K, x1 = 0.8962	922.92	0.549
333.15 K, x1 = 1	942.433	0.5997
